For assay [1], the system named is Uveal melanoma cell lines, 92-1 or MP41. Nature of the assay: Comparison of BRG1/BRM inhibitor to clinical PKC and MEK inhibitors, cell growth (Cell-titer glo, 3 days). The note with it: 92-1 or MP41 cells, versus LXS196 and Selumetinib. The class given is cell-based. Here is the method: Procedure: Uveal melanoma cell lines, 92-1 or MP41, were plated in 96 well plates in the presence of growth media (See Table 6). […] Cells were incubated at 37 degrees Celsius for 3 days. After three days of treatment, cell growth was measured with Cell-titer glow (Promega), and luminescence was read on an Envision plate reader (Perkin Elmer).

The target in another assay is BRM (Homo sapiens, UniProt P51531). Nature of the assay: ATPase catalytic activity assay of BRM (ADP-Glo). The class given is biochemical. In short, it runs like this:
(§1)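 Measurement is luminescence, reflecting ADP produced by ATPase turnover. The two-step ADP-Glo detection consists of ATP depletion for 40 min and ADP-to-ATP conversion with luciferase for 60 min, both at room temperature.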
Background: ADP-Glo first removes unused ATP, then detects ADP through luciferase.

In the next assay the target is BRG-1 (Homo sapiens, UniProt P51532). Nature of the assay: ATPase catalytic activity assay of BRG-1 (ADP-Glo). The class given is biochemical. The conditions noted are these: ATPase catalytic activity, ADP-Glo. In a few lines:
as §1

The values below come from patent publication US12685735B2 (Foghorn Therapeutics Inc., priority 2020, dated 2026).

Sequence of BRG-1 (P51532 whole entry): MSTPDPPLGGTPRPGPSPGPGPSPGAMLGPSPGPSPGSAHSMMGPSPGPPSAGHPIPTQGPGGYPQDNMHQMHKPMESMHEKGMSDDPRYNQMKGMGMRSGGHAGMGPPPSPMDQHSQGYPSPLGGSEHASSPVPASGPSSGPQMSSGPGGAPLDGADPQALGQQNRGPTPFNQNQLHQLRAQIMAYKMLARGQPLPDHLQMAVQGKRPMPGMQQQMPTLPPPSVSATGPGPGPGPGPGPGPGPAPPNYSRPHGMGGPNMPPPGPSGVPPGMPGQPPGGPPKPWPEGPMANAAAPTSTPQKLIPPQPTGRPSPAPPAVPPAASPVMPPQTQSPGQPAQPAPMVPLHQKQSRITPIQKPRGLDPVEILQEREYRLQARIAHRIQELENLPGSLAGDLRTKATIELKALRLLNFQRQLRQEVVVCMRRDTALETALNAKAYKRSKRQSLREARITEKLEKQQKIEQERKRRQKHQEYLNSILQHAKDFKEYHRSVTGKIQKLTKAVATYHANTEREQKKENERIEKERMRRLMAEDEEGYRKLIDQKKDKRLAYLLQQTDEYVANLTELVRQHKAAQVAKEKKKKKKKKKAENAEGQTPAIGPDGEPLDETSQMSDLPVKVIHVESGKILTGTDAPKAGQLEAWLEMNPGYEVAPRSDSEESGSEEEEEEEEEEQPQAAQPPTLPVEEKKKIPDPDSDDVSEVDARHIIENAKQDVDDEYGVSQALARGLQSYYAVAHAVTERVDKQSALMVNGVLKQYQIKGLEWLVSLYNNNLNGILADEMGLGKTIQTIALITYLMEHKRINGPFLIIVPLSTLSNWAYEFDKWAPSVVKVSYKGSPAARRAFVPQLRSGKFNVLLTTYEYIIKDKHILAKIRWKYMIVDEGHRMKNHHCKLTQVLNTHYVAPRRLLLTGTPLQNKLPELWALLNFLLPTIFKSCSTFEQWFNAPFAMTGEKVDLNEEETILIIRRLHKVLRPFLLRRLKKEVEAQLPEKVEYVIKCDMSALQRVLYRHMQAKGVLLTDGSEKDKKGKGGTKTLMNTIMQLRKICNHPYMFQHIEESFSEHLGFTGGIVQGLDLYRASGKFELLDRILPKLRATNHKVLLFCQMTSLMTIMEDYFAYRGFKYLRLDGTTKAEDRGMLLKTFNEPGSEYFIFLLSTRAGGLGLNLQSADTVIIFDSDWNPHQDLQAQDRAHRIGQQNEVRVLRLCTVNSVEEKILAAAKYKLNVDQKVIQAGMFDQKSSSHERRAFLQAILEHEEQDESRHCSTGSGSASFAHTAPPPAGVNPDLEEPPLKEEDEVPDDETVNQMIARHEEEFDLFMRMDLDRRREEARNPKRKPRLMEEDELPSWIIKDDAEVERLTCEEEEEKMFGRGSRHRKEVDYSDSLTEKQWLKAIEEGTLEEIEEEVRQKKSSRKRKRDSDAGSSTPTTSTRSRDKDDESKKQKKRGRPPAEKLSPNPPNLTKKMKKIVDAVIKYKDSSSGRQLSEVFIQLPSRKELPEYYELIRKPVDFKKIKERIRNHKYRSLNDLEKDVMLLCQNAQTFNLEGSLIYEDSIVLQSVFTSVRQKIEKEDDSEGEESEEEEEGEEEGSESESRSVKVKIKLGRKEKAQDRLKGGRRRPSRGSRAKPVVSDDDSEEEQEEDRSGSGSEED
Sequence of BRM (P51531 whole entry): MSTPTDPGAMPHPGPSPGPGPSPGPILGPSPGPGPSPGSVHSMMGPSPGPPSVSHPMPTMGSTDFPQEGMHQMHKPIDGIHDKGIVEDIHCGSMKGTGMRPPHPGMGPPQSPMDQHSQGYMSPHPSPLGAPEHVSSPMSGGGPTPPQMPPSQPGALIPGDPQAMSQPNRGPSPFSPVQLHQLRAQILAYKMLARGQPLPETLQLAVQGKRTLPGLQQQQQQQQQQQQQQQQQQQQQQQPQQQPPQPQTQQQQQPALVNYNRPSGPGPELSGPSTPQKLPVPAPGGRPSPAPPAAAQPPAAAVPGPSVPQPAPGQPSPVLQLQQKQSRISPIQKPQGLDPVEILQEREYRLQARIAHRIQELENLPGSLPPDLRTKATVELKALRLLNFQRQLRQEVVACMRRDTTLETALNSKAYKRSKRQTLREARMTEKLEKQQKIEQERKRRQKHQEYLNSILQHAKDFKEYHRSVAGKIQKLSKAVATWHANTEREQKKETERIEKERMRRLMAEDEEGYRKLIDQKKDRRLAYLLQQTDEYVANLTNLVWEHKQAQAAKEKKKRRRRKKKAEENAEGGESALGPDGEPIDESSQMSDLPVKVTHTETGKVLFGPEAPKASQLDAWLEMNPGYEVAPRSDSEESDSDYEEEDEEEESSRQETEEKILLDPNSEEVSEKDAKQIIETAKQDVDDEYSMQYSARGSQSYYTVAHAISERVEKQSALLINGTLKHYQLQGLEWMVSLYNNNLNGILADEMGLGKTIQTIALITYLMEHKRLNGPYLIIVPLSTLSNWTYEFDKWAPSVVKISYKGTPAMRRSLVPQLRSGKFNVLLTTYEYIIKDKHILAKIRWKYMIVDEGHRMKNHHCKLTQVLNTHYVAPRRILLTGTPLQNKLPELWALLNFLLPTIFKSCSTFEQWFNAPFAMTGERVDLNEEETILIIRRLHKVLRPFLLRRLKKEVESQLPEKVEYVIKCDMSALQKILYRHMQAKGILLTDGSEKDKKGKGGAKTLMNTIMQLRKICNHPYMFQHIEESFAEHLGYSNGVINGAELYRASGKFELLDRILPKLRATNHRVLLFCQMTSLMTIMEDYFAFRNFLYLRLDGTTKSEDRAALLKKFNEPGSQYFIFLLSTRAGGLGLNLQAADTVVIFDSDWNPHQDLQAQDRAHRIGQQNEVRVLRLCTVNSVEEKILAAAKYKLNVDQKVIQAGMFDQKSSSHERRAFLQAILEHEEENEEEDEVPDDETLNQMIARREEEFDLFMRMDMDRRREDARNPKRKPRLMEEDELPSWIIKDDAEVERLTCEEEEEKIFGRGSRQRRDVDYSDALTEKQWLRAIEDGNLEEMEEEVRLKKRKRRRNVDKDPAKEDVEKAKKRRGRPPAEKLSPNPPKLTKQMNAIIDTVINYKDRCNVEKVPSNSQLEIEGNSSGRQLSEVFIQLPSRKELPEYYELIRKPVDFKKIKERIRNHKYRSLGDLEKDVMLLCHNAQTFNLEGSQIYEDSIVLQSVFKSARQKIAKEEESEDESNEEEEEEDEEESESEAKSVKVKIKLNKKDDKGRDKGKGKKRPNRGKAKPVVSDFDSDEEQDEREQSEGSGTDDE

With `CSCC[C@H](NC(=O)c1ccc(N)cc1)C(=O)Nc1nc(-c2cccc(-c3ccncc3)c2)cs1` [Compound A], in assay [1] (0 to 10 micromolar, 3 days, FIGS. 2A and 2B), the “growth inhibition of uveal melanoma cells compared with the clinical PKC and MEK inhibitors” value was “comparable growth inhibition”. Moreover, the “onset of inhibition compared with the clinical PKC and MEK inhibitors” value in assay [1] is recorded as “faster onset of inhibition”.

Regarding `C[C@@H]1CN(c2cccc(-c3csc(NC(=O)CNC(=O)c4cccc([C@@]5(C(F)F)CCOC5)c4)n3)c2)C[C@H](C)O1` [Compound 286, 3-((S)-3-(difluoromethyl)tetrahydrofuran-3-yl)-N-(2-((4-(3-((cis)-2,6-dimethylmorpholino)phenyl)thiazol-2-yl)amino)-2-oxoethyl)benzamide], at BRM, the “BRM Max % Inhibition” value is on record as >95%. The half-maximal inhibitory concentration (IC50) is < 0.1 µM at BRM (read-out: BRM IC50 (μM)*) and 1 to 5 µM at BRG-1 (read-out: BRG1 IC50 (μM)*). Further, on BRG-1 (read-out: BRG1 Max % Inhibition), the Emax is > 95%.

One may read the IC50 as the concentration at which inhibition is half-maximal.
